pIC50: −log10 of the molar value.
These molecules were tested against LC3B (Homo sapiens, UniProt Q9GZQ8) (assay: Fluorescence Polarization (FP) Assay: displacement of FITC-labeled peptide from GST-LC3B). Settings: Fluorescence Polarization assay; GST-LC3B 180 nM, FITC-labeled peptide 18 nM, 25° C.; read-out: IC50.
Type: binding
Procedure: The compounds of the present invention for regulating the autophagy-related protein LC3B were tested by Fluorescence Polarization (FP) Assay.
Fluorescence Polarization (FP) Assay Test
In the case of `CN(C)CCNC=C1C(=O)CC(c2c[nH]cc2Br)CC1=O` (stereo not shown) [Compound 413, 5-(4-bromo-1H-pyrrole-3-yl)-2-(((2-(dimethylamino)ethyl)amino)methylene) cyclohexane-1,3-dione], the pIC50 was 4.82 to 5.52.
Work on `CN(C)CCNC=C1C(=O)CC(c2c[nH]c(-c3ccccc3)c2)CC1=O` (stereo not shown) [Compound 414, 2-(((2-(dimethylamino)ethyl)amino)methylene)-5-(5-phenyl-1H-pyrrole-3-yl)cyclohexane-1,3-dione] yielded a pIC50 of 4.82 to 5.52.
`Cc1ccc(C2CC(=O)C(=CO)C(=O)C2)cc1` (stereo not shown) [Compound 415, 2-(hydroxymethylene)-5-(4-methylphenyl)cyclo-hexane-1,3-dione] showed a pIC50 of 4.82 to 5.52.
For `O=C1CC(c2ccccc2F)CC(=O)C1=CO` (stereo not shown) [Compound 416, 2-(hydroxymethylene)-5-(2-fluorophenyl)cyclo-hexane-1,3-dione], the pIC50 was greater than 5.52.
Work on `O=C1CC(c2cccc(F)c2F)CC(=O)C1=CO` (stereo not shown) [Compound 417, 2-(hydroxymethylene)-5-(2,3-difluorophenyl)cyclo-hexane-1,3-dione] yielded a pIC50 greater than 5.52.
`O=C1CC(c2ccccc2Cl)CC(=O)C1=CO` (stereo not shown) [Compound 418, 2-(hydroxymethylene)-5-(2-chlorophenyl)cyclo-hexane-1,3-dione] showed a pIC50 greater than 5.52.
Work on `O=C1CC(c2cccc(Cl)c2)CC(=O)C1=CO` (stereo not shown) [Compound 419, 2-(hydroxymethylene)-5-(3-chlorophenyl)cyclo-hexane-1,3-dione] yielded a pIC50 greater than 5.52.
In the case of `O=C1CC(c2c(Cl)cccc2Cl)CC(=O)C1=CO` (stereo not shown) [Compound 420, 2-(hydroxymethylene)-5-(2,6-dichlorophenyl)cyclo-hexane-1,3-dione], the pIC50 was greater than 5.52.
With `O=C1CC(c2cccc(Cl)c2Cl)CC(=O)C1=CO` (stereo not shown) [Compound 421, 2-(hydroxymethylene)-5-(2,3-dichlorophenyl)cyclo-hexane-1,3-dione] the pIC50 was greater than 5.52.
With `O=C1CC(c2ccccc2Br)CC(=O)C1=CO` (stereo not shown) [Compound 422, 2-(hydroxymethylene)-5-(2-bromophenyl)cyclo-hexane-1,3-dione] the pIC50 was greater than 5.52.
`COc1ccccc1C1CC(=O)C(=CO)C(=O)C1` (stereo not shown) [Compound 423, 2-(hydroxymethylene)-5-(2-methoxyphenyl)cyclo-hexane-1,3-dione] was tested, and the pIC50 was 4.82 to 5.52.
`COc1ccc(C2CC(=O)C(=CO)C(=O)C2)c(OC)c1` (stereo not shown) [Compound 424, 2-(hydroxymethylene)-5-(2,4-dimethoxyphenyl) cyclohexane-1,3-dione] showed a pIC50 of 4.82 to 5.52.
With `N#Cc1ccc(C2CC(=O)C(=CO)C(=O)C2)cc1` (stereo not shown) [Compound 425, 2-(hydroxymethylene)-5-(4-cyanophenyl)cyclo-hexane-1,3-dione] the pIC50 was 4.00 to 4.82.
`O=C1CC(c2ccccc2C(F)(F)F)CC(=O)C1=CO` (stereo not shown) [Compound 426, 2-(hydroxymethylene)-5-(2-trifluoromethylphenyl) cyclohexane-1,3-dione] gave a pIC50 greater than 5.52.
`O=C1CC(c2cccs2)CC(=O)C1=CO` (stereo not shown) [Compound 427, 2-(hydroxymethylene)-5-(2-thiophen)cyclohexane-1,3-dione] showed a pIC50 of 4.82 to 5.52.
With `O=C1CC(c2ccsc2)CC(=O)C1=CO` (stereo not shown) [Compound 428, 2-(hydroxymethylene)-5-(3-thiophen)cyclohexane-1,3-dione] the pIC50 was 4.82 to 5.52.
`O=C1CC(c2cccc3[nH]ccc23)CC(=O)C1=CO` (stereo not shown) [Compound 429, 2-(hydroxymethylene)-5-(1H-indol-4-yl)cyclohexane-1,3-dione] gave a pIC50 greater than 5.52.
`O=C1CC(c2c[nH]c3ccccc23)CC(=O)C1=CO` (stereo not shown) [Compound 430, 2-(hydroxymethylene)-5-(1H-indol-3-yl)cyclohexane-1,3-dione] was tested, and the pIC50 was greater than 5.52.
`O=C1CC(c2ccnc3ccccc23)CC(=O)C1=CO` (stereo not shown) [Compound 431, 2-(hydroxymethylene)-5-(4-quinoline)cyclohexane-1,3-dione] showed a pIC50 of 4.82 to 5.52.
In the case of `COc1ccc(Br)c(C2CC(=O)C(=CO)C(=O)C2)c1` (stereo not shown) [Compound 432, 2-(hydroxymethylene)-5-(2-bromo-5-methoxyphenyl)cyclo-hexane-1,3-dione], the pIC50 was greater than 5.52.
`COc1cc(Br)c(C2CC(=O)C(=CO)C(=O)C2)cc1OC` (stereo not shown) [Compound 433, 2-(hydroxymethylene)-5-(2-bromo-4,5-dimethoxyphenyl) cyclohexane-1,3-dione] showed a pIC50 greater than 5.52.
Molecule `O=C1CC(c2ccccc2[N+](=O)[O-])CC(=O)C1=CO` (stereo not shown) [Compound 434, 2-(hydroxymethylene)-5-(2-nitrophenyl)cyclo-hexane-1,3-dione] has a pIC50 of 4.82 to 5.52.
Work on `O=C1CC(c2cccc([N+](=O)[O-])c2)CC(=O)C1=CO` (stereo not shown) [Compound 435, 2-(hydroxymethylene)-5-(3-nitrophenyl)cyclo-hexane-1,3-dione] yielded a pIC50 of 4.82 to 5.52.
Work on `O=C1CC(c2ccc([N+](=O)[O-])cc2)CC(=O)C1=CO` (stereo not shown) [Compound 436, 2-(hydroxymethylene)-5-(4-nitrophenyl)cyclo-hexane-1,3-dione] yielded a pIC50 of 4.82 to 5.52.
`O=C1CC(c2ccc(C(F)(F)F)cc2)CC(=O)C1=CO` (stereo not shown) [Compound 437, 2-(hydroxymethylene)-5-(4-trifluoromethylphenyl) cyclohexane-1,3-dione] was tested, and the pIC50 was 4.82 to 5.52.
In the case of `O=C1CC(c2ccc(Br)cc2)CC(=O)C1=CO` (stereo not shown) [Compound 438, 2-(hydroxymethylene)-5-(4-bromophenyl)cyclo-hexane-1,3-dione], the pIC50 was 4.82 to 5.52.
`O=C1CC(c2cccc(Br)c2)CC(=O)C1=CO` (stereo not shown) [Compound 439, 2-(hydroxymethylene)-5-(3-bromophenyl)cyclo-hexane-1,3-dione] gave a pIC50 of 4.82 to 5.52.
For `CSc1ccc(C2CC(=O)C(=CO)C(=O)C2)cc1` (stereo not shown) [Compound 440, 5-(4-methylthiophenyl)-2-(hydroxymethylene) cyclohexane-1,3-dione], the pIC50 was 4.82 to 5.52.
For `COc1cccc(OC)c1C1CC(=O)C(=CO)C(=O)C1` (stereo not shown) [Compound 441, 2-(hydroxymethylene)-5-(2,6-dimethoxyphenyl) cyclohexane-1,3-dione], the pIC50 was 4.00 to 4.82.
`O=C1CC(c2ccccc2O)CC(=O)C1=CO` (stereo not shown) [Compound 442, 2-(hydroxymethylene)-5-(2-hydroxyphenyl)cyclo-hexane-1,3-dione] was tested, and the pIC50 was 4.00 to 4.82.
`O=C1CC(c2ccc(O)cc2)CC(=O)C1=CO` (stereo not shown) [Compound 443, 2-(hydroxymethylene)-5-(4-hydroxyphenyl)cyclo-hexane-1,3-dione] was tested, and the pIC50 was 4.00 to 4.82.
Molecule `O=C1CC(c2ccccc2)CC(=O)C1=CO` (stereo not shown) [Compound 444, 2-(hydroxymethylene)-5-phenylcyclohexane-1,3-dione] has a pIC50 of 4.82 to 5.52.
Molecule `O=C1CC(CCc2ccc3c(c2)OCO3)CC(=O)C1=CO` (stereo not shown) [Compound 445, 2-(hydroxymethylene)-5-(2-(benzo[d] [1,3]dioxo-5-yl)ethyl)-cyclohexane-1,3-dione] has a pIC50 of 4.00 to 4.82.
`O=C1CC(c2cccc(F)c2)CC(=O)C1=CO` (stereo not shown) [Compound 446, 2-(hydroxymethylene)-5-(3-fluorophenyl)cyclo-hexane-1,3-dione] showed a pIC50 of 4.82 to 5.52.
With `O=C1CC(c2c(C(F)(F)F)ccc(Cl)c2F)CC(=O)C1=CO` (stereo not shown) [Compound 447, 2-(hydroxymethylene)-5-((2-fluoro-3-chloro-6-trifluoromethyl)phenyl)cyclohexane-1,3-dione] the pIC50 was greater than 5.52.
`O=C1C=C(c2ccccc2)OC(=O)C1=CO` [Compound 448, 3-(hydroxymethylene)-6-phenyl-2H-pyran-2,4(3H)-dione] gave a pIC50 of 4.82 to 5.52.
`CC(O)=C1C(=O)CC(c2ccccc2)CC1=O` (stereo not shown) [Compound 449, 2-(1-hydroxyethylidene)-5-phenylcyclohexane-1,3-dione] gave a pIC50 of 4.00 to 4.82.

— patent US11319303B2 (WIGEN BIOMEDICINE TECHNOLOGY (SHANGHAI) CO., LTD., priority 2017, dated 2022)
